Paper PMC9959048, “Lipidation of Naturally Occurring α-Helical Antimicrobial Peptides as a Promising Strategy for Drug Design” (International Journal of Molecular Sciences, 2023)
Converted amounts (≈) assume the structure as drawn. Residues, ends and D or L forms follow the SMILES beside them. *: point of attachment. Myristoyl = CCCCCCCCCCCCCC(=O)*; Lauroyl = CCCCCCCCCCCC(=O)*; Octanoyl = CCCCCCCC(=O)*

How the values were obtained:
[1] = tested on: S. aureus PCM2054; assay type: cell-based, Staphylococcus aureus; conditions: Mueller–Hinton broth, inoculum 5 × 10^5 CFU/mL, 24 h, 37 °C, absorbance 600 nm, triplicate
Description: (§1) The evaluation of the antimicrobial activity of the synthesized lipopeptides was performed against the following reference bacterial and fungal strains: Staphylococcus aureus PCM 1650, Staphylococcus aureus PCM 2054, Staphylococcus epidermidis PCM 521, Staphylococcus epidermidis PCM 2118, Escherichia coli PCM 2057, Candida albicans PCM 2566, Candida glabrata CCM 8270, Candida krusei CCM 8271, Candida parapsilosis CCM 8260.
(§2) For the initial cultivation of the bacteria and fungi, Luria-Bertani broth (LB, Biomaxima, Lublin, Poland) and Sabouraud Dextrose broth (SB, Biomaxima, Lublin, Poland) were used, respectively. Antimicrobial properties of the compounds were analyzed through the determination of MIC (minimal inhibitory concentrations) by my means of the serial micro-dilution technique according to the guidelines of Clinical & Laboratory Standard Institute (CLSI) established for aerobic bacteria and yeasts.
(§3) According to the procedures, Mueller–Hinton broth (MHB) was used as the working medium for the analysis of the bacterial susceptibility, while RPMI-1640 (with L-glutamine, without sodium bicarbonate) growth medium buffered with MOPS (morpholinepropanesulfonic acid) and supplemented with 2% glucose was used for the experiments with the fungi.
(§4) The experiments were carried out for 24 h at 37 and 35 °C for the bacteria and fungi, respectively. Then, the absorbance was measured at 600 nm for each well of the 96-well plate using a microplate reader (Sunrise TM, Tecan Trading AG, Männedorf, Switzerland). Based on the obtained results, the degree of inhibition of the growth of microorganisms (expressed in %) in the presence of the tested compounds range was determined with respect to the control probes. Inoculated wells without peptide were treated as a positive control (100% growth), and the wells containing working medium only were defined as a negative control (0% growth). All measurements were repeated in triplicate.

[2] = molecular target: POPG LUVs; assay: Isothermal titration calorimetry, binding to POPG LUVs; conditions: ITC, 25 °C, 0.05 or 0.07 mM peptide titrated with 1.3 or 1.8 mM POPG LUVs; one set of sites model (C10-LL-I: two sets of sites, first line)
Description: (§5) Large unilamellar vesicles (LUV) were obtained by extrusion of MLV liposomes through polycarbonate membrane filters with a pore diameter of 100 nm (Whatman International Ltd., Kent, UK) using a mini-extruder (Avanti Polar Lipids, Inc., Alabaster, AL, USA).
The thermodynamic parameters of the interactions of the lipopeptides with POPG and POPC liposomes were determined by isothermal titration calorimetry (ITC). Measurements were performed at 25 °C using an AutoITC microcalorimeter (MicroCal Inc., Northampton, MA, USA) with a 1.4491 mL sample and reference cells. The experiment consisted in the titration of a buffered peptide solution with a concentration of 0.05 and/or 0.07 mM with a buffered solution containing POPG or POPC LUVs with a lipid concentration of 1.3 and 1.8 mM (10.02 µL; 29 injections, 2 µL for the first injection only), as it was described previously. The result of the titration was a thermogram showing a series of peaks corresponding to the titration steps. A titration curve was obtained after integration of the peak areas. The obtained isotherms were fitted to the “one set of sites” or “two sets of sites” models available in the ORIGIN 7.0 (MicroCal Inc., Northampton, MA, USA), which made it possible to determine the enthalpy (ΔH), the binding constant (KITC) and the stoichiometry (N) of the interactions between the lipopeptide and the lipids. The following formula was used to calculate the entropy change (ΔS) and the Gibbs free energy (ΔG): ΔG=−RTln(55.5KITC)=ΔH−TΔS where: factor 55.5 is the molar concentration of water, R is the gas constant (1.986 cal·mol^−1·K^−1), and T is the absolute temperature.

[3] = tested on: S. epidermidis PCM521; assay type: cell-based, Staphylococcus epidermidis; conditions: Mueller–Hinton broth, inoculum 5 × 10^5 CFU/mL, 24 h, 37 °C, absorbance 600 nm, triplicate
Description: as §1, §2, §3, §4

[4] = tested on: S. epidermidis PCM2118; assay type: cell-based, Staphylococcus epidermidis; conditions: Mueller–Hinton broth, inoculum 5 × 10^5 CFU/mL, 24 h, 37 °C, absorbance 600 nm, triplicate
Description: as §1, §2, §3, §4

[5] = tested on: C. albicans PCM2566; assay type: cell-based, Candida albicans; conditions: RPMI-1640 with MOPS and 2% glucose, inoculum 5 × 10^3 CFU/mL, 24 h, 35 °C, absorbance 600 nm, triplicate
Description: as §1, §2, §3, §4

[6] = tested on: C. parapsilosis CCM 8260; assay type: cell-based, Candida parapsilosis; conditions: RPMI-1640 with MOPS and 2% glucose, inoculum 5 × 10^3 CFU/mL, 24 h, 35 °C, absorbance 600 nm, triplicate
Description: as §1, §2, §3, §4

[7] = tested on: C. krusei CCM8271; assay type: cell-based, Candida krusei; conditions: RPMI-1640 with MOPS and 2% glucose, inoculum 5 × 10^3 CFU/mL, 24 h, 35 °C, absorbance 600 nm, triplicate
Description: as §1, §2, §3, §4

[8] = tested on: POPG liposomes; assay: CD, α-helix content in POPG liposomes; assay type: physicochemical; conditions: 25 °C, peptide 0.15 mg/mL, 1.3 mM POPG, from ellipticity at 222 nm
Description: as §5
(§6) CD experiments were carried out at 25 °C using a Jasco J-815 spectropolarimeter in the wavelength range 185–260 nm. The concentration of the lipopeptides was 0.15 mg/mL. The CD spectra were recorded in water, PBS (pH 7.4), 1.3 mM POPC and 1.3 mM POPG. The results are plotted as the mean molar ellipticity per one amino acid residue (MRME, deg cm^2 dmol^−1) as a function of the wavelength (nm). Additionally, we performed a conformational analysis of the selected compounds in the presence of S. aureus cells. […] The mixtures were then incubated for 2 h before recording the CD spectra.
(§7) The percentage of the α-helical structure was calculated based on the mean molar ellipticity at 222 nm using the formula: fH=θ222−3000/−36000−3000·100% where θ222 corresponds to the value of the mean molar ellipticity at a wavelength of 222 nm.

[9] = tested on: POPC liposomes; assay: CD, α-helix content in POPC liposomes; assay type: physicochemical; conditions: 25 °C, peptide 0.15 mg/mL, 1.3 mM POPC
Description: as §5, §6, §7

[10] = tested on: E. coli PCM2057; assay type: cell-based, Escherichia coli; conditions: Mueller–Hinton broth, inoculum 5 × 10^5 CFU/mL, 24 h, 37 °C, absorbance 600 nm, triplicate
Description: as §1, §2, §3, §4

[11] = tested on: human breast cancer cells (MCF-7 line, ATCC); assay: MTT cytotoxicity assay; assay type: cell-based; conditions: IC50 against HaCaT divided by IC50 for MCF-7
Description: (§8) The prepared plates were further incubated for 48 h. […] The control cell viability was assumed to be 100%. Three independent experiments were carried out in three repetitions.

[12] = tested on: human prostate cancer cells (PC3 line, ATCC); assay: MTT cytotoxicity assay; assay type: cell-based; conditions: IC50 against HaCaT divided by IC50 for PC3
Description: as §8

[13] = tested on: C. glabrata CCM8270; assay type: cell-based, Candida glabrata; conditions: RPMI-1640 with MOPS and 2% glucose, inoculum 5 × 10^3 CFU/mL, 24 h, 35 °C, absorbance 600 nm, triplicate
Description: as §1, §2, §3, §4

[14] = tested on: S. aureus PCM1650; assay type: cell-based, Staphylococcus aureus; conditions: Mueller–Hinton broth, inoculum 5 × 10^5 CFU/mL, 24 h, 37 °C, absorbance 600 nm, triplicate
Description: as §1, §2, §3, §4

## CCCCCCCC(=O)N[C@@H](CCCCN)C(=O)N[C@@H](CCCNC(=N)N)C(=O)N[C@@H](Cc1ccccc1)C(=O)N[C@@H](CCCCN)C(=O)N[C@@H](CCCCN)C(=O)N[C@@H](Cc1ccccc1)C(=O)N[C@@H](Cc1ccccc1)C(=O)N[C@@H](CCCCN)C(=O)N[C@@H](CCCCN)C(=O)N[C@@H](CC(C)C)C(=O)N[C@@H](CCCCN)C(N)=O [C8-ATRA-1] (Octanoyl-KRFKKFFKKLK-NH2)
[1]
  MIC, S. aureus PCM2054: 7.8 µg/mL (≈ 4.81 µM)
[2]
  pKITC, POPG: 5.78 ± 0.27
[3]
  MIC, S. epidermidis PCM521: 3.13 µg/mL (≈ 1.93 µM)
[4]
  MIC, S. epidermidis PCM2118: 3.13 µg/mL (≈ 1.93 µM)
[5]
  MIC, C. albicans PCM2566: >50 µg/mL
[6]
  MIC, C. parapsilosis CCM 8260: 50 µg/mL (≈ 30.8 µM)
[7]
  MIC, C. krusei CCM8271: 12.5 µg/mL (≈ 7.7 µM)
[8]
  α-Helix percentage, POPG: 20%
[9]
  θ222/θ208, POPC: 0.38
[9]; from ellipticity at 222 nm
  α-Helix percentage, POPC: 11%
[10]
  MIC, E. coli PCM2057: >50 µg/mL
[11]
  SI MCF-7: 8.55
[12]
  SI PC3: 2.29
[13]
  MIC, C. glabrata CCM8270: >50 µg/mL

## CCCCCCCCCCCC(=O)N[C@H](C(=O)N[C@@H](CC(N)=O)C(=O)N[C@@H](Cc1c[nH]c2ccccc12)C(=O)N[C@@H](CCCCN)C(=O)N[C@@H](CCCCN)C(=O)N[C@H](C(=O)N[C@@H](CC(C)C)C(=O)NCC(=O)N[C@@H](CCCCN)C(=O)N[C@H](C(=O)N[C@H](C(=O)N[C@@H](CCCCN)C(=O)N[C@H](C(=O)N[C@@H](C)C(=O)N[C@@H](CCCCN)C(N)=O)C(C)C)[C@@H](C)CC)[C@@H](C)CC)C(C)C)C(C)C [C12-LL-I] (Lauroyl-VNWKKVLGKIIKVAK-NH2)
[1]
  MIC, S. aureus PCM2054: 12.5 µg/mL (≈ 6.56 µM)
[14]
  MIC, S. aureus PCM1650: 12.5 µg/mL (≈ 6.56 µM)
[3]
  MIC, S. epidermidis PCM521: 12.5 µg/mL (≈ 6.56 µM)
[4]
  MIC, S. epidermidis PCM2118: 6.25 µg/mL (≈ 3.28 µM)
[5]
  MIC, C. albicans PCM2566: >50 µg/mL
[6]
  MIC, C. parapsilosis CCM 8260: 3.13 µg/mL (≈ 1.64 µM)
[7]
  MIC, C. krusei CCM8271: 12.5 µg/mL (≈ 6.56 µM)
[10]
  MIC, E. coli PCM2057: >50 µg/mL
[13]
  MIC, C. glabrata CCM8270: 12.5 µg/mL (≈ 6.56 µM)

## CCCCCCCCCCCCCC(=O)N[C@@H](CCCCN)C(=O)N[C@@H](CCCNC(=N)N)C(=O)N[C@@H](Cc1ccccc1)C(=O)N[C@@H](CCCCN)C(=O)N[C@@H](CCCCN)C(=O)N[C@@H](Cc1ccccc1)C(=O)N[C@@H](Cc1ccccc1)C(=O)N[C@@H](CCCCN)C(=O)N[C@@H](CCCCN)C(=O)N[C@@H](CC(C)C)C(=O)N[C@@H](CCCCN)C(N)=O [C14-ATRA-1] (Myristoyl-KRFKKFFKKLK-NH2)
[1]
  MIC, S. aureus PCM2054: 3.9 µg/mL (≈ 2.28 µM)
[14]
  MIC, S. aureus PCM1650: 12.5 µg/mL (≈ 7.32 µM)
[3]
  MIC, S. epidermidis PCM521: 25 µg/mL (≈ 14.6 µM)
[4]
  MIC, S. epidermidis PCM2118: 6.25 µg/mL (≈ 3.66 µM)
[5]
  MIC, C. albicans PCM2566: 2.5 µg/mL (≈ 1.46 µM)
[6]
  MIC, C. parapsilosis CCM 8260: 3.13 µg/mL (≈ 1.83 µM)
[7]
  MIC, C. krusei CCM8271: 2.5 µg/mL (≈ 1.46 µM)
[10]
  MIC, E. coli PCM2057: >50 µg/mL
[13]
  MIC, C. glabrata CCM8270: 3.13 µg/mL (≈ 1.83 µM)

## CC[C@H](C)[C@H](NC(=O)[C@H](CCCCN)NC(=O)CNC(=O)[C@H](CC(C)C)NC(=O)[C@@H](NC(=O)[C@H](CCCCN)NC(=O)[C@H](CCCCN)NC(=O)[C@H](Cc1c[nH]c2ccccc12)NC(=O)[C@H](CC(N)=O)NC(=O)[C@@H](N)C(C)C)C(C)C)C(=O)N[C@H](C(=O)N[C@@H](CCCCN)C(=O)N[C@H](C(=O)N[C@@H](C)C(=O)N[C@@H](CCCCN)C(N)=O)C(C)C)[C@@H](C)CC [LL-I, reference compound] (H-VNWKKVLGKIIKVAK-NH2)
[1]
  MIC, S. aureus PCM2054: >50 µg/mL
[14]
  MIC, S. aureus PCM1650: 25 µg/mL (≈ 14.5 µM)
[3]
  MIC, S. epidermidis PCM521: 12.5 µg/mL (≈ 7.25 µM)
[4]
  MIC, S. epidermidis PCM2118: 6.25 µg/mL (≈ 3.63 µM)
[5]
  MIC, C. albicans PCM2566: >50 µg/mL
[6]
  MIC, C. parapsilosis CCM 8260: 50 µg/mL (≈ 29 µM)
[7]
  MIC, C. krusei CCM8271: 50 µg/mL (≈ 29 µM)
[10]
  MIC, E. coli PCM2057: 12.5 µg/mL (≈ 7.25 µM)
[13]
  MIC, C. glabrata CCM8270: >50 µg/mL
